Data on one compound can be found in ChEMBL document CHEMBL1146379, “Solid phase synthesis and SAR of small molecule agonists for the GPR40 receptor” (Bioorg Med Chem Lett, 2007).

Data set [1] in a line: Half life in po dosed rat. The settings on record: in vivo. It counts as ADME, organism-based.
Data set [2] concerns the target T1, Free fatty acid receptor 2 (Homo sapiens, UniProt O15552).
T1 sequence (O15552 whole entry): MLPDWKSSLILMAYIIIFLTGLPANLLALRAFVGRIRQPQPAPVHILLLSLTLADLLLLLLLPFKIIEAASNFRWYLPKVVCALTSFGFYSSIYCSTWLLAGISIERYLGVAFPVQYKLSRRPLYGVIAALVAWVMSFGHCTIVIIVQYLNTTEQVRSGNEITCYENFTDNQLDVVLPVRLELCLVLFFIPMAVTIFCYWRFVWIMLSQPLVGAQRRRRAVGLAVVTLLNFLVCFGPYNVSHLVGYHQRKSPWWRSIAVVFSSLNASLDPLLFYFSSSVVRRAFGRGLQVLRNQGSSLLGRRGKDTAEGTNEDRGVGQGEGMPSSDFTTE
Briefly: Activity at GPR43 receptor.

Another data set has as its target T2, Cytochrome P450 1A2 (Homo sapiens, UniProt P05177).
T2 sequence (P05177 whole entry): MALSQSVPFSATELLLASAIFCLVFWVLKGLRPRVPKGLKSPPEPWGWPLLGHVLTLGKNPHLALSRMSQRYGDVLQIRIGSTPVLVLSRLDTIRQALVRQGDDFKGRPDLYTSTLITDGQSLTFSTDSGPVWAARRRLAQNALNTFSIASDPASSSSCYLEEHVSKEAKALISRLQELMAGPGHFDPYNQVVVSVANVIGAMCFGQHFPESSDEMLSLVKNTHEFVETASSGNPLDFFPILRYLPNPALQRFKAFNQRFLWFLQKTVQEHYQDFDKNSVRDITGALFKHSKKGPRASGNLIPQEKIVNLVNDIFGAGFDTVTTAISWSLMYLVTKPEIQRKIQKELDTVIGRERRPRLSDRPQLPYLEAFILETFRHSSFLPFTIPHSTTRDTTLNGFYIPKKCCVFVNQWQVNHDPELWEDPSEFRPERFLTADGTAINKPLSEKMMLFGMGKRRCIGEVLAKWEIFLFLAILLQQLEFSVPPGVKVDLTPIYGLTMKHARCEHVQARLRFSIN
Put plainly: Inhibition of CYP1A2. In kind it is ADME.

Data set [3] is described as follows: Clearance in rat. It counts as ADME, organism-based. The settings on record: in vivo.
Data set [4] addresses T3, Prostaglandin E2 receptor EP3 subtype (Homo sapiens, UniProt P43115).
T3 sequence (P43115 whole entry): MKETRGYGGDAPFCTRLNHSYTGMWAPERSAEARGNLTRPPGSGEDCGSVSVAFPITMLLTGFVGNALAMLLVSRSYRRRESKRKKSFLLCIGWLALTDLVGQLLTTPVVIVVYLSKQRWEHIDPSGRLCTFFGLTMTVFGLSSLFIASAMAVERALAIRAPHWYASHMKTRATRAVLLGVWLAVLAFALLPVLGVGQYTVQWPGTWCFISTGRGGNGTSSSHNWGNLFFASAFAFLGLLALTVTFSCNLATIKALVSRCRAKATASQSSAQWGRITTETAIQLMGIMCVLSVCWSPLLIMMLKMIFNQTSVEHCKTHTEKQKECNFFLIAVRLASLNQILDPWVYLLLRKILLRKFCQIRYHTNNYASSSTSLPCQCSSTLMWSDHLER
Put plainly: Activity at EP3 receptor.

Data set [5] has as its target Hydroxycarboxylic acid receptor 2 (Homo sapiens, UniProt Q8TDS4). Put plainly: Activity at HM74A receptor.
Data set [6] has as its target Free fatty acid receptor 1 (Homo sapiens, UniProt O14842). Put plainly: Agonist activity at GPR40 receptor expressed in CHO cells by reporter gene assay. In kind it is functional, cell-based.
Another data set addresses Cytochrome P450 2C9 (Homo sapiens, UniProt P11712). Put plainly: Inhibition of CYP2C9. In kind it is ADME.
In another data set the target is Cytochrome P450 2C19 (Homo sapiens, UniProt P33261). Briefly: Inhibition of CYP2C19. It counts as ADME.
The test system of another data set is Liver microsomes. Briefly: Intrinsic clearance in human liver microsomes. It counts as ADME, Microsome.
Data set [7] in a line: Bioavailability in rat. It counts as ADME, organism-based. The settings on record: in vivo.

Free fatty acid receptor 1, sequence (O14842 whole entry): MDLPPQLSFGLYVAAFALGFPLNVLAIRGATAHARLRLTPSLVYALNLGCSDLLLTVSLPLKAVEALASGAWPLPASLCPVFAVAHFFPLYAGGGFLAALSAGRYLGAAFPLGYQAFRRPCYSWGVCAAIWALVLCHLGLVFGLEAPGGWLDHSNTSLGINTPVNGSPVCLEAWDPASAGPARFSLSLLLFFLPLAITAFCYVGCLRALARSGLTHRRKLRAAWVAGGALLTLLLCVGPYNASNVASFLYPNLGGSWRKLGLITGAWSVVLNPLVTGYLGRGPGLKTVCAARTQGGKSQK
Hydroxycarboxylic acid receptor 2, sequence (Q8TDS4 whole entry): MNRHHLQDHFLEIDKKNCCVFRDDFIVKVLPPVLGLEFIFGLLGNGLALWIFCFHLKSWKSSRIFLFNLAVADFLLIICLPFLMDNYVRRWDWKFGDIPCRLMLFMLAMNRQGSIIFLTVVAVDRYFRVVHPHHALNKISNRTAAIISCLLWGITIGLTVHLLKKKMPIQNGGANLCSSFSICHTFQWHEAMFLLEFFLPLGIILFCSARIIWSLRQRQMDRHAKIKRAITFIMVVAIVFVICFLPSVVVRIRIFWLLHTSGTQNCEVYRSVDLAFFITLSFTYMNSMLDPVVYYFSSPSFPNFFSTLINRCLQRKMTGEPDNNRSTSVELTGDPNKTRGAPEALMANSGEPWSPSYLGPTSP
Cytochrome P450 2C9, sequence (P11712 whole entry): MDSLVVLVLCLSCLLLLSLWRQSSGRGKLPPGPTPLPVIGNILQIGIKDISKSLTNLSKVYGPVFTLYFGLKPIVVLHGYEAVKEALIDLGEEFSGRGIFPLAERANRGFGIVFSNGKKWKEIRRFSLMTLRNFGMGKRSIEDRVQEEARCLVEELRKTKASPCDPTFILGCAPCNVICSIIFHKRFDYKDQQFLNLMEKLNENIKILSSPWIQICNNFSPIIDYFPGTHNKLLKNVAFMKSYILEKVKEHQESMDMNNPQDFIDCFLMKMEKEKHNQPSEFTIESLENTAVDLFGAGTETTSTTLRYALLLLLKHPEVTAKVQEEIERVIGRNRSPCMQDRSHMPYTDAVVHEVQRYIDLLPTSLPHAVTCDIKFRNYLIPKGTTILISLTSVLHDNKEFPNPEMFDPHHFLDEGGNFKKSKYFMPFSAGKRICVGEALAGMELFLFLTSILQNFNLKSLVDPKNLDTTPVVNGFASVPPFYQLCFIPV
Cytochrome P450 2C19, sequence (P33261 whole entry): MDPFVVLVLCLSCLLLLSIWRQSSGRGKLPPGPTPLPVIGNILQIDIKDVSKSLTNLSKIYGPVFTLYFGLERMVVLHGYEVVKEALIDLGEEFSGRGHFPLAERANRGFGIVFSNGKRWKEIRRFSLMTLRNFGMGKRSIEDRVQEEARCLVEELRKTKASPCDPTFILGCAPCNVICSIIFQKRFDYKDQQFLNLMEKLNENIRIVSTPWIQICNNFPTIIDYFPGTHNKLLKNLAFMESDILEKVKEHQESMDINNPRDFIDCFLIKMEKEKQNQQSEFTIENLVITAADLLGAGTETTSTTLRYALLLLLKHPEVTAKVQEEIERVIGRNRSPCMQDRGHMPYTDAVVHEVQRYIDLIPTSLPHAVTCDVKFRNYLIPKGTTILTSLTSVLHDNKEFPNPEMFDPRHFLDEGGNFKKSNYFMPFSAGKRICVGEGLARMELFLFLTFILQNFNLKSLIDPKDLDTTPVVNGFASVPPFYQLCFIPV

On to `O=C(O)CCc1ccc(NCc2cccc(Oc3ccccc3)c2)cc1` [GW9508], for which the half-life in data set [1] is 5.9 h. For the same compound, the concentration for a half-maximal effect (EC50) in [2] was over 50.1 µM; in data set [5], over 6.31 µM. The IC50 against Cytochrome P450 1A2, against Cytochrome P450 2C9 and against Cytochrome P450 2C19 was over 33 µM throughout. The clearance in [3] worked out at 24.9 mL/min/kg. In addition, the Ki in data set [4] is 0.398 µM. The same compound displayed a %max in data set [6] of 69%. The CL with Liver microsomes is 0.74 mL/min/g. In addition, the bioavailability in data set [7] amounted to 65%.

The term half-life denotes the time in which the quantity being followed falls by half. Lower therefore signals fast loss. A word on the EC50: it is the midpoint of the concentration-response curve. Low readings indicate a more potent agent, high ones a less potent agent. Usually IC50 stands for the concentration that inhibits the measured activity by half. As usually defined, the clearance is the rate of elimination divided by the concentration. A lower clearance goes with inefficient removal. What is called Ki is the dissociation constant of the complex between target and ligand, obtained from inhibition or displacement. Read a high Ki as weaker binding. The bioavailability is the share of a dose that reaches the circulation, judged against a reference dose that is usually intravenous. A lower bioavailability goes with little systemic uptake.
